# Results as given in patent US4457919A, “Method of imparting immunomodulating, antiviral or antitumor activity” (Newport Pharmaceutical International, Inc., priority 1982, dated 1984).
# Where two headings read alike, the source gives them in different places.
# Experiments:
# [1] = test system: Vero Cells, Liver Homogenate, and Human Peripheral Blood Lymphocytes; assay: Conversion of pro-drugs to NPT 15392 by animal cells and tissues, stated in words; assay type: in vitro ADME; conditions: NPT 15458 compared with NPT 15457
# L1210 (mouse) = assay: Inhibition of growth of L1210 mouse leukemia cells; assay type: cell-based; conditions: 10 μg/ml
# Experimental: (§1) Effect of Erythro-9-(2-Acetoxy-3-Nonyl)-Hypoxanthine on Growth of Tumor (Leukemia) Cells In Vivo
# The activity of one of these agents, NPT 15458 as inhibitors of the growth of abnormal lymphocytes has been determined. […] A 40% inhibition of L-1210 cells was effected by NPT 15458 at 10 μg/ml.
# [2] = Formation of NPT 15392 on incubation with liver homogenate (HPLC); assay type: in vitro ADME; conditions: for % of NPT 15392: 0 hrs.
# From the text: (§2) | ^a Determined using HPLC
# [3] = test system: human peripheral blood lymphocytes; assay: PHA mitogen-induced lymphocyte proliferation using human peripheral blood lymphocytes (HPBL); assay type: cell-based; conditions: for Cpm Incorp. +PHA: with PHA; for Cpm Incorp. +PHA / Cpm Incorp. -PHA / S.I. / fold induction at 0.036 µM / fold induction at 0.36 µM / fold induction at 3.6 µM: NPT 15392 values means of three experiments; for Cpm Incorp. -PHA: without PHA; for S.I.: NPT 15458 p ≤ 0.05; for fold induction at 0.036 µM / fold induction at 0.36 µM / fold induction at 3.6 µM: Homo sapiens, Lymphocyte, read-out: D/C (S.I. drug / control); for Immunomodulating (in vitro) lymphocyte proliferation (in words): PHA, HPBL; for Immunomodulating (in vitro) Lymph. Prolif., change: Table 11 summary
# Experimental: 2. Mitogen induced lymphocyte proliferation using human peripheral blood lymphocytes (HPBL) (in vitro).
# 1. Twenty-two and a half grams of Ficoll 400 (Pharmacia, M.W. .perspectiveto.400,000) are dissolved in 200 ml of distilled H2 O. When most of the material is in solution, the volume is then adjusted to 250 ml with distilled H2 O.
# 2. Thirty-four grams of Hypaque (sodium diatrizoate, Sterling Organics, M.W. .perspectiveto.636) are dissolved in 100 ml distilled H2 O.
# 3. Solutions are then sterile filtered thorugh a 0.45μ millipore filter and stored in sterile containers at 4° C. away from light.
# 4. Working solutions are prepared by mixing 10 ml Hypaque solution with 24 ml Ficoll solution. The mixture is warmed to 25° C. with constant stirring.
# 1. Human blood samples are obtained by veinipuncture into heparinized 20 ml-vacutainer tubes. Fifteen to twenty ml of the undiluted blood is gently layered over an equal volume of Ficoll-Hypaque solution in sterile 50 ml polycarbonate centrifuge tubes using aseptic techniques.
# 2. Prepared samples are centrifuged at 25° C., 400×g for 30 mins. The fuzzy white band at the interface is aseptically aspirated into a 50 ml sterile centrifuge tube with 10-20 ml RPMI-1640. The cells are washed once at 25° C. 400×g for 10 mins. at 25° C.
# 3. Pelleted PBL's are resuspended in 1 ml RPMI for every 8 ml whole blood originally used and counted with a Coulter counter. Concentration is adjusted with RPMI-1640 supplemented with glutamine and antibiotics. The cells are held at room temperatue until used.
# 1. Lipopolysaccharide B or Phytohemagglutinin P powder is weighed and dissolved in RPMI-1640 at a concentration of 1000 μg/ml (1 mg/ml) and filter sterilized through a 0.45μ millipore filter.
# 2. Solutions are aliquotted (1 ml/tube) asceptically into labelled sterile cryotubes and frozen. Samples are not refrozen after partial use, but may be stored for a day or two at 4° C. Lyophilized powder is kept refrigerated at 4° C.
# 1. PBL's are prepared as in SOP #I-004 in serum-free RPMI-1640 supplemented with glutamine and antibiotic-antimycotic solution (GIBCO). One tenth ml per well is added to each well of 96-well microtest culture plates (CoStar Plastics) with 8-channel automatic micropipettors (Flow Labs.) fitted with sterile tips.
# 2. Mitogen solutions are thawed rapidly and diluted to 4 times the desired concentration with RPMI-1640.
# 3. Test compounds are prepared for use as per SOP #C-002, using RPMI-1640 as diluent, and diluted to 4 times the final desired concentration.
# 4. Fifty μl of each dilution of mitogen and/or test compound is added to 6 replicate cultures. Plain RPMI-1640 is used in the same amounts in control cultures for a total volume of 0.2 ml/well.
# 5. Cultures are incubated at 37° C. in a humidified 95% air, 5% CO2 atmosphere (pH .perspectiveto.6.0- 7.0) for 48 hours. The cells are then labelled with 0.5μCi/well ^3 H-TdR (Thymidine) for an additional 18 hours. the cells are harvested with a multiple automatic sample harvester (M.A.S.H.) machine. Nonadherent cells are aspirated onto glass fiber filter strips with 0.9% saline solution (10 well flushes) and the cells lysed with distilled water (20 well flushes). The strips are thoroughly air dried, residual cell deposits cut from the strips and each sample placed in 1 dram glass scintillation vials. Scintillation fluid concentrate (Scintiprep 1, Fisher Chemicals) is diluted 1:50 with scintillation grade toluene (Packard) and 1 ml added to each vial. Samples are evaluated by liquid scintillation spectroscopy and the data expressed as the means counts per minute per test group.
# 8068 (Human) = assay: Inhibition of growth of 8068 human tumor (leukemia) cells; assay type: cell-based; conditions: 10 μg/ml
# From the text: as §1
# mouse spleen cells = assay: PHA mitogen-induced lymphocyte proliferation using murine spleen cells (in vitro); assay type: cell-based; conditions: for Cpm Incorp. +PHA: with PHA; for Cpm Incorp. -PHA: without PHA
# From the text: 1. Mitogen induced lymphocyte proliferation using murine spleen cells (in vitro).
# [4] = Blood levels after i.p. administration to mice; assay type: in vivo; conditions: for Convertible to NPT 15392, Biological: Mouse: Table 11 summary; for Blood Level of NPT 15458: i.p., 360 μm/kg of compound administered
# From the text: This clearly establishes the fact that NPT 15458 and NPT 15457 can produce NPT 15392 in vivo and further at least one of these derivatives gives much higher blood levels allowing for greater activity.
# HPBL = assay: Formation of NPT 15392 on incubation with human peripheral blood lymphocytes (HPLC); assay type: in vitro ADME; conditions: HPBL, 0 hrs.
# From the text: as §2
# [5] = as above; assay type: in vitro ADME; conditions: human, peripheral blood lymphocytes
# From the text: as §2
# [6] = test system: viruses, immune response, leukemic lymphocytes; conditions: cited from earlier work
# [7] = Mus musculus, Lymphocyte, 10 ng/ml, read-out: D/C (S.I. drug / control)
# [8] = HPBL, 24 hrs., read-out: % of NPT 15392
# [9] = Table 11 summary, read-out: Convertible to NPT 15392, Biological: HPBL
Compound,% of NPT 15392 [2],metabolised at 0.5 h [2],Cpm Incorp. +PHA ([3]; 0.036 n moles/ml),Cpm Incorp. -PHA ([3]; 0.036 n moles/ml),S.I. ([3]; 0.036 n moles/ml),Cpm Incorp. +PHA ([3]; 0.36 n moles/ml),Cpm Incorp. -PHA ([3]; 0.36 n moles/ml),S.I. ([3]; 0.36 n moles/ml),Cpm Incorp. +PHA ([3]; 3.6 n moles/ml),Cpm Incorp. -PHA ([3]; 3.6 n moles/ml),S.I. ([3]; 3.6 n moles/ml),fold induction at 0.036 µM ([3]; 0.036 n moles/ml),fold induction at 0.36 µM ([3]; 0.36 n moles/ml),fold induction at 3.6 µM ([3]; 3.6 n moles/ml),Immunomodulating (in vitro) lymphocyte proliferation (in words) [3],"Immunomodulating (in vitro) Lymph. Prolif., change [3]",S.I. (stimulation index) (mouse spleen cells; 10 ng/ml),Cpm Incorp. +PHA (mouse spleen cells; 10 ng/ml),% of NPT 15392 (HPBL),"metabolised at 24 h [5, 8]",further results
"CCCCCC[C@H]([C@H](C)OC(C)=O)n1cnc2c(=O)[nH]cnc21 (relative stereo) [NPT 15458, erythro-9-(2-Acetoxy-3-Nonyl)-Hypoxanthine]",0%,70%,"59,898 Cpm",214 Cpm,280,"63,858 Cpm",221 Cpm,289,"69,055 Cpm",238 Cpm,290,1.43,1.48,1.48,effectve in augmenting PHA induced lymphocyte proliferation and Yes,43-48%,436,"66,800 Cpm",0%,100%,"Conversion to NPT 15392 (in words) [1]: appears to occur to a greater extent than the conversion of NPT 15457 to NPT 15392; inhibition at 10 µg/mL (L1210 (mouse)): 40%; inhibition at 10 µg/mL (8068 (Human)): 32%; Cpm Incorp. -PHA (mouse spleen cells; 10 ng/ml): 153 Cpm; S.I. (stimulation index) (mouse spleen cells; 50 ng/ml): 589; Cpm Incorp. +PHA (mouse spleen cells; 50 ng/ml): 81,297 Cpm; Cpm Incorp. -PHA (mouse spleen cells; 50 ng/ml): 138 Cpm; fold induction at 0.01 µg/mL (mouse spleen cells; [7]): 0.93; fold induction at 0.05 µg/mL (mouse spleen cells; Mus musculus, Lymphocyte, 50 ng/ml, read-out: D/C (S.I. drug / control)): 1.25; activation at 50 µg/mL (mouse spleen cells; Mus musculus, Lymphocyte, 50 μg/ml, read-out: Increase of PHA induced lymphocyte proliferation): ~25%; Convertible to NPT 15392, Biological: Mouse [4]: 100; Blood Level of NPT 15458 ([4]; animal # 1): 0 μm/ml × 10^3; Blood Level of NPT 15458 ([4]; animal # 2): 0 μm/ml × 10^3; metabolised at 24 h [5, 9]: 100%"
"CCCCCC[C@H]([C@H](C)O)n1cnc2c(=O)[nH]cnc21 (relative stereo) [NPT 15392, erythro-9-(2-hydroxy-3-nonyl)-hypoxanthine, reference compound]",100%,100%,"59,167 Cpm",297 Cpm,199,"69,057 Cpm",577 Cpm,120,"67,328 Cpm",381 Cpm,176,1.27,0.76,1.13,Yes,12-27%,588,"68,804 Cpm",100%,100%,Cpm Incorp. -PHA (mouse spleen cells; 10 ng/ml): 117 Cpm; fold induction at 0.01 µg/mL (mouse spleen cells; [7]): 1.25; Previously demonstrated activity (in words) [6]: antiviral immunomodulating and anti-tumor activity
"CCCCCC[C@H]([C@H](C)OC(=O)CCC(=O)O)n1cnc2c(=O)[nH]cnc21 (relative stereo) [NPT 15457, Erythro-9-(2-Succinoxy-3-Nonyl) Hypoxanthine]",0%,14%,"59,569 Cpm",240 Cpm,250,"59,689 Cpm",228 Cpm,261,"52,149 Cpm",232 Cpm,224,1.28,1.33,1.14,effectve in augmenting PHA induced lymphocyte proliferation and Yes,14-28%,–,–,0%,18.2%,"Convertible to NPT 15392, Biological: Mouse [4]: 25; metabolised at 24 h [5, 9]: 18%"
